# From ChEMBL document CHEMBL2074357, “Identification and functional assessment of the novel murine organic anion transporter Oat5 (Slc22a19) expressed in kidney” (Am J Physiol Renal Physiol, 2004)
# B1: Solute carrier family 22 member 19 (Mus musculus), Q8VCA0 (protein)
# chain: MAFQDLIIQIGSLGRFQILHMIFVLICHALSAPHTLLENFTAAIPSHRCWVPILDNDTASDNGSRILSQDDLLRISIPLDSNLRPDKCRRYIQPQWHLLHLNGTFPTVTEPDTEPCVDGWVYDQSTFLSTTVTQWDLVCGSQALNSVAKFIYMTGIFIGYIMGGHLSDKFGRKLIFTCSLLKMAITETCVAFAPSFLIYCSLRFLSGIFSSTLRTNSALLILEWTSPKFQALVMALIFIASGVGQTLLGGLAFAFRNWHHLQLALSVPMFLLLIPTRWLSESARWLIMANKPQKSLKELKKAACVNRIKNSGDALTLEVVKTIMKEELEAAQTKPSPLDLFRTPNLRKRICLLSFVRFVSVMSLLGLLINIQYLSNNVFLLQCLYGVVCIPANVLGNFSMNYMGRRMTQLIFMSVLGISILAVVFLPQEMQILRVFLSTLGGAISSASITSTLVHANELVPTIIRATALGVVGIAGSAGGALSPLLMILTTYSASLPWIIYGILPFLGGLVALLLPETKNQPLPDSIQDIENKRKSSKEAKKDVVAKVTPL
# Columns and labels:
# Format in all cases: functional, cell-based
# [1] = biological target: T1, Solute carrier family 22 member 19 (Mus musculus) (UniProt Q8VCA0); assay: TP_TRANSPORTER: inhibition of (Ochratoxin A: 0.5uM) of Probenecid at a concentration of 1000uM in Oat5-expressing Xenopus oocytes; design: scale not given: the % may be the effect or the level left; conditions: Xenopus laevis, Oocyte
# T1 sequence (whole entry): B1 chain
# [2] = biological target: T1, Solute carrier family 22 member 19 (Mus musculus); assay: TP_TRANSPORTER: inhibition of (Ochratoxin A: 0.5uM) of 2,4-dichlorophenoxyacetic acid at a concentration of 100uM in Oat5-expressing oocytes; design: scale not given: the % may be the effect or the level left; conditions: Xenopus laevis, Oocyte
# [3] = biological target: T1, Solute carrier family 22 member 19 (Mus musculus); assay: TP_TRANSPORTER: inhibition of (Ochratoxin A: 0.5uM) of Estrone-3-sulfate at a concentration of 100uM in Oat5-expressing oocytes; design: scale not given: the % may be the effect or the level left; conditions: Xenopus laevis, Oocyte
# [4] = substrate: C[C@@H]1Cc2c(Cl)cc(C(=O)N[C@@H](Cc3ccccc3)C(=O)O)c(O)c2C(=O)O1; assay: TP_TRANSPORTER: uptake in Oat5-expressing oocytes; conditions: Xenopus laevis; Oocyte
molecule,measurement,setting,value
CCCN(CCC)S(=O)(=O)c1ccc(C(=O)O)cc1,Activity,[1],25%
O=C(O)COc1ccc(Cl)cc1Cl,Activity,[2],25%
C[C@]12CC[C@@H]3c4ccc(OS(=O)(=O)O)cc4CC[C@H]3[C@@H]1CCC2=O,Activity,[3],5%
B1,Km,[4],2 µM
